In data set [1] the target is T1, S-COMT enzyme (Homo sapiens, UniProt P21964).
T1 sequence (P21964 1-221 isoform P21964-2): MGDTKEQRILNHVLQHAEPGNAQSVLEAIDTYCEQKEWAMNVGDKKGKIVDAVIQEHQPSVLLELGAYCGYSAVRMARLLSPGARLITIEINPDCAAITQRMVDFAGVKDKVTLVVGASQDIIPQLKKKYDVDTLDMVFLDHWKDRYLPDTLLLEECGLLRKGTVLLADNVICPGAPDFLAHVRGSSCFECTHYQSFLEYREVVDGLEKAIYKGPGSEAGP
Nature of the data set: Determination of IC50 values, COMT inhibition (dopamine methylation, HPLC). It is filed as biochemical. Particulars: S-COMT enzyme (about 30 nM), 0.05 mM AdoMet, 3 mM dopamine, 5 min preincubation, 15 min at 37° C., pH 7.4. How it is done: The studied inhibitors were first dissolved into 0.1 M NaOH solution and then diluted with distilled water to 0.5 mM inhibitor concentration. From this stock solution the inhibitor concentrations were adjusted by diluting the desired amounts of stock solution with 0.05 M phosphate buffer, pH 7.4. The studied sample solutions were prepared into the Eppendorf tubes. The final concentrations of the studied samples were; -100 mM phosphate buffer, 5 mM MgCl2, 0.05 mM AdoMet, S-COMT enzyme (about 30 nM) and the inhibitor.
The samples were mixed with Vortex, and incubated for 5 min at 37° C. The reactions were initiated with 3 mM dopamine and carried on for 15 min at 37° C. The reactions were stopped with 4 M perchloric acid and stabilized afterwards for 10 min in ice bath. The sample solutions were centrifuged for 10 min, and the methylated products, 3-methyldopamineand 4-methyidopamine, were analysed with HPLC.

Data set [2] in a line: Determination of plasma concentrations after oral dosing. In kind it is in vivo. Particulars: rat, male Wistar rats, orally dosed 10 mg/kg, read-out: Plasma c; for concentration at 0.5 h: t = 30 min; for concentration at 5 h: t = 5 h. How it is done: Male Wistar rats (220-280 g) were orally dosed (10 mg/kg) with test compounds. Control animals received the vehicle only. Blood samples were drawn from the tail artery 0.5 and 5 hours after the treatment and collected into pre-cooled Li-heparinized tubes. The plasma was separated by centrifugation (11000 g, 5 min) and stored at -80° C. until analysis.
The analytes were extracted from 200 μl of acidified plasma (100 μl of 1 M HCI) with 5 ml of ethyl acetate. The organic phase (4 ml) was evaporated to dryness under a stream of nitrogen at 40° C. The residue was redissolved in 200 μl of dimethylsulphoxide and 30 μl of it was analyzed by HPLC with amperometric detection. The electrode potential was +700 mV.

Like-named read-outs stand apart in the source and are kept apart here.

For orientation: IC50 means the midpoint of a concentration-inhibition curve. A high value points to lower potency. For `O=Cc1cc(O)c(O)c(C=O)c1CCCCC(=O)O` [Example 14, 5-(2.6-DIFORMYL-3,4-DIHYDROXYPHENYL)PENTANOIC ACID], half-maximal inhibition in data set [1] (IC50) required 30 nM.

Take `N#Cc1cc(O)c(O)c(C#N)c1CCCCC(=O)O` [Example 16, 5-(3,4-DIHYDROXY-2,6-DICYANOPHENYL)PENTANOIC ACID]: in data set [2] (plasma), the concentration at 0.5 h came out at 2000 ng/mL and the concentration at 5 h was found to be 150 ng/mL. The compound further displayed an IC50 in data set [1] of 15 nM. On to `CC(=O)C(=Cc1cc(O)c(O)c([N+](=O)[O-])c1)C(C)=O` [Comparison compound 2, 2[(3,4-dihydroxy-5-nitrophenyl)methylene]-2,4-pentanedione, reference compound], for which, in data set [2] (plasma), the concentration at 0.5 h is 530 ng/mL and the concentration at 5 h is below 25 ng/mL. In data set [1], `O=Cc1cc(O)c(O)c(C=O)c1CCC(=O)O` [Example 15, 3-(2,6-DIFORMYL-3,4-DIHYDROXYPHENYL)PROPANOIC ACID] returned an IC50 of 60 nM.

With `N#Cc1cc(O)c(O)c(C#N)c1CCC(=O)O` [Example 17, 3-(2,6-DICYANO-3,4-DIHYDROXYPHENYL)PROPANOIC ACID], in data set [1], inhibition was half-maximal at 20 nM (IC50). With `O=C(O)CCCCc1c([N+](=O)[O-])cc(O)c(O)c1[N+](=O)[O-]` [Example 13, 5-(3,4-DIHYDROXY-2,6-DINITROPHENYL)-PENTANOIC ACID], the IC50 in data set [1] stood at 20 nM. Turning to `O=C(O)CCc1c([N+](=O)[O-])cc(O)c(O)c1[N+](=O)[O-]` [Example 11, 3-(3,4-DIHYDROXY-2,6-DINITROPHENYL)-PROPANOIC ACID], in data set [2] (in vivo), the concentration at 0.5 h came out at 2100 ng/mL and the concentration at 5 h is 490 ng/mL. For the same compound, in data set [1], the IC50 was found to be 30 nM.
